These results are taken from patent publication US10961253B2, “Positive allosteric modulators of the muscarinic acetylcholine receptor M4” (Vanderbilt University, priority 2016, dated 2021).

Each structure is given as a SMILES string.

Series [1] deals with T1, Human M4 (Homo sapiens, UniProt P08173).
T1 sequence (P08173 1-479): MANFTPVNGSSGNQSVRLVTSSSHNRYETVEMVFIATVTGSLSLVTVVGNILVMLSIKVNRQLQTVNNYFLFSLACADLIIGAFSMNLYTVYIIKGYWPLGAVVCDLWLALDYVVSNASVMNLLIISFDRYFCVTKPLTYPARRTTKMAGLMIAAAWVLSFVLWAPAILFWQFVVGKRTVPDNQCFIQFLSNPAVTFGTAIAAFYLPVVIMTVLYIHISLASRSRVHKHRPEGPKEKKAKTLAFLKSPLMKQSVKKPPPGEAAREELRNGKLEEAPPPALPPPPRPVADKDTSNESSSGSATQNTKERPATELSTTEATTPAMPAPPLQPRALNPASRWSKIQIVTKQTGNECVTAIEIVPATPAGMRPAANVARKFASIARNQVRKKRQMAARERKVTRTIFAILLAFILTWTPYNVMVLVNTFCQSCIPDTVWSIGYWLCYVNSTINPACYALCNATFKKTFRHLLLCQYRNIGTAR
Nature of the series: mAChR M4 cell-based functional assay (calcium flux, potentiation of EC20 acetylcholine response). Set-up: Emax: dose or concentration left out as unconfirmed. As to conditions: for Emax: CHO-K1. Background: Calcium flux is commonly read through the fluorescence of an indicator in the cells.

For series [2] the following is noted: human, in vivo; cited from earlier work.
For series [3] the following is noted: similar profiles to known antipsychotic drugs, without causing catalepsy; cited from earlier work.
The conditions of series [4]: Alzheimer's disease patients; delusions, suspiciousness, vocal outbursts, hallucinations; cited from earlier work.

For `Cc1cc(C)c2c(n1)sc1c(C3CCOCC3)ncnc12` [Compound 1, 7,9-Dimethyl-4-(tetrahydro-2H-pyran-4-yl)pyrido[3′,2′:4,5]thieno[3,2-d]pyrimidine], in series [1], the EC50 (usually the concentration that produces a half-maximal response) was found to be 150 nM and the Emax (usually the maximal effect, on the per cent scale that the assay sets) amounted to 98.8%.
For `C/C=C/c1ncnc2c1sc1nc(C)cc(C)c12` [Compound 2, (E)-7,9-dimethyl-4-(prop-1-en-1-yl)pyrido[3′,2′:4,5]thieno[3,2-d]pyrimidine; 2,2,2-trifluoroacetic acid], in that order: above 10000 nM and 55.3%.
The corresponding values for `Cc1cc(C)c2c(n1)sc1c(-c3nccs3)ncnc12` [Compound 3, 7,9-dimethyl-4-(thiazol-2-yl)pyrido[3′,2′:4,5]thieno[3,2-d]pyrimidine; 2,2,2-trifluoroacetic acid] are 3400 nM and 62.2%.
The corresponding values for `Cc1cc(C)c2c(n1)sc1c(C)ncnc12` [Compound 4, 4,7,9-trimethylpyrido[3′,2′:4,5]thieno[3,2-d]pyrimidine] are 2800 nM and 58.1%.
With `Cc1cc(C)c2c(n1)sc1c(C3CC3)ncnc12` [Compound 5, 4-cyclopropyl-7,9-dimethylpyrido[3′,2′:4,5]thieno[3,2-d]pyrimidine], in series [1], the EC50 worked out at 3900 nM and the Emax was 61.5%.
The corresponding values for `CCc1ncnc2c1sc1nc(C)cc(C)c12` [Compound 6, 4-ethyl-7,9-dimethylpyrido[3′,2′:4,5]thieno[3,2-d]pyrimidine] are 2900 nM and 59.1%.
Regarding `Cc1cc(C)c2c(n1)sc1c(C3CCN(C=O)CC3)ncnc12` [Compound 7, 4-(7,9-dimethylpyrido[3′,2′:4,5]thieno[3,2-d]pyrimidin-4-yl)piperidine-1-carbaldehyde], in series [1], the EC50 was 480 nM and the Emax was found to be 65.6%.
In the case of `Cc1cc(C)c2c(n1)sc1c(C3CCCC3)ncnc12` [Compound 8, 4-cyclopentyl-7,9-dimethylpyrido[3′,2′:4,5]thieno[3,2-d]pyrimidine], in series [1], the EC50 is above 10000 nM and the Emax is 70.9%.
Consider `Cc1cc(C)c2c(n1)sc1c(C3CCCCC3)ncnc12` [Compound 9, 4-cyclohexyl-7,9-dimethylpyrido[3′,2′:4,5]thieno[3,2-d]pyrimidine], for which, in series [1], the EC50 was determined as 6800 nM and the Emax was determined as 70.8%.
The corresponding values for `Cc1cc(C)c2c(n1)sc1c(C3CCNCC3)ncnc12` [Compound 10, 7,9-dimethyl-4-(piperidin-4-yl)pyrido[3′,2′:4,5]thieno[3,2-d]pyrimidine] are 6100 nM and 98.8%.
For the molecule `Cc1cc(C)c2c(n1)sc1c(C3CCN(C(=O)C4CC4)CC3)ncnc12` [Compound 11, cyclopropyl(4-(7,9-dimethylpyrido[3′,2′:4,5]thieno[3,2-d]pyrimidin-4-yl)piperidin-1-yl)methanone], in series [1], the EC50 is 620 nM and the Emax came out at 43.5%.
`Cc1cc(C)c2c(n1)sc1c(C3CCN(C(=O)C4(F)CC4)CC3)ncnc12` [Compound 12, (4-(7,9-dimethylpyrido[3′,2′:4,5]thieno[3,2-d]pyrimidin-4-yl)piperidin-1-yl)(1-fluorocyclopropyl)methanone]: in series [1], the EC50 came out at 820 nM and the maximum response (Emax) came out at 62%.
For `Cc1cc(C)c2c(n1)sc1c(C3CCN(C(=O)C4(C)CC4)CC3)ncnc12` [Compound 13, (4-(7,9-dimethylpyrido[3′,2′:4,5]thieno[3,2-d]pyrimidin-4-yl)piperidin-1-yl)(1-methylcyclopropyl)methanone], in that order: 230 nM and 63%.
For `Cc1cc(C)c2c(n1)sc1c(C3CCN(C(=O)C4CCC4)CC3)ncnc12` [Compound 14, cyclobutyl(4-(7,9-dimethylpyrido[3′,2′:4,5]thieno[3,2-d]pyrimidin-4-yl)piperidin-1-yl)methanone], in that order: 520 nM and 72.3%.
For `Cc1cc(C)c2c(n1)sc1c(C3CCN(C(=O)C4CCCO4)CC3)ncnc12` (stereo not shown) [Compound 15, (4-(7,9-dimethylpyrido[3′,2′:4,5]thieno[3,2-d]pyrimidin-4-yl)piperidin-1-yl)(tetrahydrofuran-2-yl)methanone], in that order: 1000 nM and 44%.
In the case of `Cc1nnc2sc3c(C4CCCCC4)ncnc3c2c1C` [Compound 16, 8-cyclohexyl-3,4-dimethylpyrimido[4′,5′:4,5]thieno[2,3-c]pyridazine], in series [1], the concentration giving a half-maximal response (EC50) was determined as 52 nM and the Emax was found to be 72.6%.
For `Cc1nnc2sc3c(C4CC4)ncnc3c2c1C` [Compound 17, 8-cyclopropyl-3,4-dimethylpyrimido[4′,5′:4,5]thieno[2,3-c]pyridazine], in that order: 140 nM and 73.5%.
Take `Cc1nnc2sc3c(C4CCOCC4)ncnc3c2c1C` [Compound 18, 3,4-dimethyl-8-(tetrahydro-2H-pyran-4-yl)pyrimido[4′,5′:4,5]thieno[2,3-c]pyridazine]: the Emax in series [1] was 74.6%.
As to `Cc1nnc2sc3c(C4CCNCC4)ncnc3c2c1C` [Compound 19, 3,4-dimethyl-8-(piperidin-4-yl)pyrimido[4′,5′:4,5]thieno[2,3-c]pyridazine], in series [1], the EC50 worked out at 4300 nM and the Emax was found to be 33.8%.
The corresponding values for `Cc1nnc2sc3c(C4CCN(C(=O)C5(F)CC5)CC4)ncnc3c2c1C` [Compound 20, (4-(3,4-dimethylpyrimido[4′,5′:4,5]thieno[2,3-c]pyridazin-8-yl)piperidin-1-yl)(1-fluorocyclopropyl)methanone] are 490 nM and 39.1%.
With `Cc1cc(C)c2c(n1)sc1c(C3CCN(C4COC4)CC3)ncnc12` [Compound 21, 7,9-dimethyl-4-(1-(oxetan-3-yl)piperidin-4-yl)pyrido[3′,2′:4,5]thieno[3,2-d]pyrimidine], in series [1], the EC50 worked out at 1600 nM and the Emax worked out at 41.8%.
For `Cc1nnc2sc3c(C4CC(F)(F)C4)ncnc3c2c1C` [Compound 22, 8-(3,3-difluorocyclobutyl)-3,4-dimethylpyrimido[4′,5′:4,5]thieno[2,3-c]pyridazine], the Emax in series [1] amounted to 72.1%.
For the molecule `Cc1nnc2sc3c(C4CCCN(C=O)C4)ncnc3c2c1C` (stereo not shown) [Compound 23, 3-(3,4-dimethylpyrimido[4′,5′:4,5]thieno[2,3-c]pyridazin-8-yl)piperidine-1-carbaldehyde], in series [1], the EC50 stood at 510 nM and the Emax is 67%.
As for `Cc1nnc2sc3c(CCC4CCCCO4)ncnc3c2c1C` (stereo not shown) [Compound 24, 3,4-dimethyl-8-(2-(tetrahydro-2H-pyran-2-yl)ethyl)pyrimido[4′,5′:4,5]thieno[2,3-c]pyridazine], in series [1], the EC50 came out at 280 nM and the Emax was 59.8%.
For `Cc1nnc2sc3c(C4CCC(F)(F)CC4)ncnc3c2c1C` [Compound 25, 8-(4,4-difluorocyclohexyl)-3,4-dimethylpyrimido[4′,5′:4,5]thieno[2,3-c]pyridazine], in series [1], the EC50 stood at 45 nM and the Emax stood at 96.3%.
Turning to `Cc1nnc2sc3c(C4CCN(C(=O)C5CC5)CC4)ncnc3c2c1C` [Compound 26, cyclopropyl(4-(3,4-dimethylpyrimido[4′,5′:4,5]thieno[2,3-c]pyridazin-8-yl)piperidin-1-yl)methanone], in series [1], the EC50 was 410 nM and the Emax worked out at 36.5%.
The corresponding values for `Cc1nnc2sc3c(C4CCN(C(=O)C5CCCO5)CC4)ncnc3c2c1C` (stereo not shown) [Compound 27, (4-(3,4-dimethylpyrimido[4′,5′:4,5]thieno[2,3-c]pyridazin-8-yl)piperidin-1-yl)(tetrahydrofuran-2-yl)methanone] are 1900 nM and 58.2%.
In the case of `Cc1nnc2sc3c(CC(C)(C)C)ncnc3c2c1C` [Compound 28, 3,4-dimethyl-8-neopentylpyrimido[4′,5′:4,5]thieno[2,3-c]pyridazine], in series [1], the Emax was 75.6%.
Consider `CCCCc1ncnc2c1sc1nnc(C)c(C)c12` [Compound 29, 8-butyl-3,4-dimethylpyrimido[4′,5′:4,5]thieno[2,3-c]pyridazine], for which, in series [1], the EC50 amounted to 540 nM and the Emax amounted to 93.4%.
Consider `Nc1c2c(nc3ccccc13)CCCC2` [tacrine], for which, in series [2], the “elevated liver transaminases (hepatotoxicity), share of patients” value was “about 30%”.
For the molecule `CCCCCCOc1nsnc1C1=CCCN(C)C1` [xanomeline], the “activity in animal models” value in series [3] is given as “active in animal models”. For the same molecule, the “effect on psychotic behavioral symptoms” value in series [4] is reported as “reduce psychotic behavioral symptoms”.
